This assay concerns the target T1, PI3Kα H1047R (T47D cells) (Homo sapiens, UniProt P42336, H1047R).
T1 construct: endogenous in cells; host or cells: T47D cells
The experiment in a line: PI3Kα cellular assay: pAKT HTRF in T47D cells after EGF stimulation. Format: cell-based. As to conditions: for IC50: T47D cells (PI3Kα H1047R), pAKT S473 HTRF, EGF stimulation. Summed up:
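T47D cells (PIK3CA H1047R) serum-starved 16 h, then treated 1 h at 37 °C with compound (10,000 nM top, 3-fold steps to 0.5 nM). After 10 min stimulation with 20 ng/mL EGF, cells were lysed and pAKT measured by HTRF.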

T1 sequence (P42336 whole entry H1047R): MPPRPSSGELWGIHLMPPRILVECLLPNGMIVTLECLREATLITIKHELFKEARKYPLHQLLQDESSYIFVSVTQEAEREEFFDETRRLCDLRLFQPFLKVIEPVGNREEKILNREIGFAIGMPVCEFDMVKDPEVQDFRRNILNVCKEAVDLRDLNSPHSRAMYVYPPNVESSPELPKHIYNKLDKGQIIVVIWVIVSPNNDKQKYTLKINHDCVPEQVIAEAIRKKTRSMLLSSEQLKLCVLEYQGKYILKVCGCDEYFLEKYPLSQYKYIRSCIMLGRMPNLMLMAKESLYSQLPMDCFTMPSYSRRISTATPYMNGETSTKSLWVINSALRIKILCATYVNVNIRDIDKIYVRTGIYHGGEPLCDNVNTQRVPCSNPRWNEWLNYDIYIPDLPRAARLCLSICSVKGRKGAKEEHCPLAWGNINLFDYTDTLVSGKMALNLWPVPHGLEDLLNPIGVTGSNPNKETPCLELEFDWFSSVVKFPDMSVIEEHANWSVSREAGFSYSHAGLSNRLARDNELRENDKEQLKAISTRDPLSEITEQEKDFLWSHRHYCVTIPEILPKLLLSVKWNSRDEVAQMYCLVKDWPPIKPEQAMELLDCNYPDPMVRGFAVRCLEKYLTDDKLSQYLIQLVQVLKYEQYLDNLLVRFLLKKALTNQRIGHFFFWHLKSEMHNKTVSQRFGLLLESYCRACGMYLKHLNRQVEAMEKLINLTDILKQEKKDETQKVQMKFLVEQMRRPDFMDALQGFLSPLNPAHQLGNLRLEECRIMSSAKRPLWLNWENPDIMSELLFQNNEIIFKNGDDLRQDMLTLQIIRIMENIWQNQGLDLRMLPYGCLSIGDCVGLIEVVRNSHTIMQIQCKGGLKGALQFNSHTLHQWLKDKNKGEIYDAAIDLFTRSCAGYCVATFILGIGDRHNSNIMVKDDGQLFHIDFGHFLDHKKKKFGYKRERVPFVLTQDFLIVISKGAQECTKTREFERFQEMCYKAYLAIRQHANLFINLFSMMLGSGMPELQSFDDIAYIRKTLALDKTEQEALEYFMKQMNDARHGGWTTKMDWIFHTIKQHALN
T1 sequence (P27986 whole entry partner): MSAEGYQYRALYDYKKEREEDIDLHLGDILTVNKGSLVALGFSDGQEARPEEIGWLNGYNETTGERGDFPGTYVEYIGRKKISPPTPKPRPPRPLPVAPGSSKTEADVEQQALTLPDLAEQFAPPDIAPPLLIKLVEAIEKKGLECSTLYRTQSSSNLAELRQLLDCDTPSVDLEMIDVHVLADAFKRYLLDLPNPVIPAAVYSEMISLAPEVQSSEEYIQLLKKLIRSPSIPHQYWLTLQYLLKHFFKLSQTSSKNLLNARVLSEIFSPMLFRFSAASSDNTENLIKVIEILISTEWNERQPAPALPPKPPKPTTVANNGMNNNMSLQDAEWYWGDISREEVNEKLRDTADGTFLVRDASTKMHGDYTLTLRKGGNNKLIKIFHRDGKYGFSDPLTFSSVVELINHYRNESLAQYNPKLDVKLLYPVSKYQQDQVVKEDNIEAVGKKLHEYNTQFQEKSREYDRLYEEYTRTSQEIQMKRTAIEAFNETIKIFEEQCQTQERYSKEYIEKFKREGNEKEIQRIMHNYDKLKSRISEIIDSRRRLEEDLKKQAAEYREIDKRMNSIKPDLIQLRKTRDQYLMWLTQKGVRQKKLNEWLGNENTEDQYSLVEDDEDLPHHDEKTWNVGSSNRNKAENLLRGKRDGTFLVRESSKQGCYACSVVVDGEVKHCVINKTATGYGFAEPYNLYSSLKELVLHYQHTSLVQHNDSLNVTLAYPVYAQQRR

Consider `Cc1cc([C@H](C)Nc2ccccc2C(N)=O)c2nc(-c3ccc4c(C)cn(C)c4c3)c(C)c(=O)n2c1` [Compound 1131], for which the IC50 was above 2000 nM and the “T47D pAKT S473 HTRF IC50 (H1047R): T47D (H1047R) selectivity over SKBR3 (WT)” value is “C (C denotes ≤5-fold)”.

For `Cc1cc(C(C)Nc2ccccc2-c2ccnnc2)c2nc(-c3ccc4c(C)cn(C)c4c3)c(C)c(=O)n2c1` (stereo not drawn) [Compound 1132], the half-maximal inhibitory concentration (IC50) was above 2000 nM and the “T47D pAKT S473 HTRF IC50 (H1047R): T47D (H1047R) selectivity over SKBR3 (WT)” value was “C (C denotes ≤5-fold)”.

In the case of `Cc1cc([C@@H](C)Nc2ccccc2-c2ccnnc2)c2nc(-c3ccc4c(C)cn(C)c4c3)c(C)c(=O)n2c1` [Compound 1133], the IC50 is above 2000 nM and the “T47D pAKT S473 HTRF IC50 (H1047R): T47D (H1047R) selectivity over SKBR3 (WT)” value is “C (C denotes ≤5-fold)”. Taken in the same sequence, the figures for `Cc1cc([C@H](C)Nc2ccccc2-c2ccnnc2)c2nc(-c3ccc4c(C)cn(C)c4c3)c(C)c(=O)n2c1` [Compound 1134] were 500 to 2000 nM and “B (B denotes 20-fold≥value>5-fold)”. The like results for `Cc1cc([C@@H](C)Nc2ccccc2C(N)=O)c2nc(-c3cnc(C)c(Cl)c3)c(C)c(=O)n2c1` [Compound 1135] were, in that order, 100 to 500 nM and “A (A denotes >20-fold)”. The like results for `Cc1cc([C@H](C)Nc2ccccc2C(N)=O)c2nc(-c3cnc(C)c(Cl)c3)c(C)c(=O)n2c1` [Compound 1136] were, in that order, above 2000 nM and “C (C denotes ≤5-fold)”.

As for `Cc1cc([C@@H](C)Nc2ccccc2C(N)=O)c2nc(-c3cccc(C#N)c3)c(C)c(=O)n2c1` [Compound 1137], the IC50 is below 100 nM and the “T47D pAKT S473 HTRF IC50 (H1047R): T47D (H1047R) selectivity over SKBR3 (WT)” value is recorded as “A (A denotes >20-fold)”. The like results for `Cc1cc([C@H](C)Nc2ccccc2C(N)=O)c2nc(-c3cccc(C#N)c3)c(C)c(=O)n2c1` [Compound 1138] were, in that order, above 2000 nM and “C (C denotes ≤5-fold)”. Turning to `Cc1cc(C(C)Nc2ccccc2-c2ccnnc2)c2nc(-c3ccc(C)c(Cl)c3)c(C)c(=O)n2c1` (stereo not drawn) [Compound 1140], the “T47D pAKT S473 HTRF IC50 (H1047R): T47D (H1047R) selectivity over SKBR3 (WT)” value is reported as “A (A denotes >20-fold)”.

For the compound `Cc1cc([C@@H](C)Nc2ccccc2-c2ccnnc2)c2nc(-c3cnc(C)c(Cl)c3)c(C)c(=O)n2c1` [Compound 1141], the “T47D pAKT S473 HTRF IC50 (H1047R): T47D (H1047R) selectivity over SKBR3 (WT)” value is on record as “C (C denotes ≤5-fold)”.

Turning to `Cc1cc(C(C)Nc2ccccc2-c2ccnnc2)c2nc(-c3cccnc3)c(C)c(=O)n2c1` (stereo not drawn) [Compound 1143], the IC50 was in the range of 100 to 500 nM and the “T47D pAKT S473 HTRF IC50 (H1047R): T47D (H1047R) selectivity over SKBR3 (WT)” value is on record as “A (A denotes >20-fold)”.

For `Cc1cc([C@@H](C)Nc2ccccc2-c2ccnnc2)c2nc(-c3cccnc3)c(C)c(=O)n2c1` [Compound 1144], the IC50 was above 2000 nM and the “T47D pAKT S473 HTRF IC50 (H1047R): T47D (H1047R) selectivity over SKBR3 (WT)” value is “C (C denotes ≤5-fold)”. The like results for `Cc1cc([C@H](C)Nc2ccccc2-c2ccnnc2)c2nc(-c3cccnc3)c(C)c(=O)n2c1` [Compound 1145] were, in that order, 100 to 500 nM and “A (A denotes >20-fold)”. As to `Cc1cc([C@@H](C)Nc2ccccc2C(=O)O)c2nc(-c3ccc(C4CCOCC4)nc3)c(C)c(=O)n2c1` [Compound 1146], the IC50 was below 100 nM and the “T47D pAKT S473 HTRF IC50 (H1047R): T47D (H1047R) selectivity over SKBR3 (WT)” value was “A (A denotes >20-fold)”. Turning to `Cc1cc([C@H](C)Nc2ccccc2C(=O)O)c2nc(-c3ccc(C4CCOCC4)nc3)c(C)c(=O)n2c1` [Compound 1147], the IC50 was above 2000 nM and the “T47D pAKT S473 HTRF IC50 (H1047R): T47D (H1047R) selectivity over SKBR3 (WT)” value was “C (C denotes ≤5-fold)”.

Consider `Cc1cc([C@H](C)Nc2ccccc2C(=O)O)c2nc(-c3ccc(C(F)F)nc3)c(C)c(=O)n2c1` [Compound 1149], for which the IC50 was above 2000 nM and the “T47D pAKT S473 HTRF IC50 (H1047R): T47D (H1047R) selectivity over SKBR3 (WT)” value is “C (C denotes ≤5-fold)”.

As to `CC1=CN2C(=O)C(C)C(c3ccc(CCC(C)(C)C)cc3)N=C2C([C@H](C)Nc2ccccc2C(=O)O)=C1` (stereo partly drawn) [Compound 1151], the “T47D pAKT S473 HTRF IC50 (H1047R): T47D (H1047R) selectivity over SKBR3 (WT)” value is “C (C denotes ≤5-fold)”. For the compound `Cc1cc(C(C)Nc2ccccc2C(N)=O)c2nc(-c3cccnc3)c(C)c(=O)n2c1` (stereo not drawn) [Compound 1152], the half-inhibitory concentration (IC50) was in the range of 100 to 500 nM and the “T47D pAKT S473 HTRF IC50 (H1047R): T47D (H1047R) selectivity over SKBR3 (WT)” value is listed as “A (A denotes >20-fold)”. The like results for `Cc1cc([C@@H](C)Nc2ccccc2C(N)=O)c2nc(-c3ccc(C4CC4)nc3)c(C)c(=O)n2c1` [Compound 1153] were, in that order, 100 to 500 nM and “A (A denotes >20-fold)”. The like results for `Cc1cc([C@H](C)Nc2ccccc2C(N)=O)c2nc(-c3ccc(C4CC4)nc3)c(C)c(=O)n2c1` [Compound 1154] were, in that order, above 2000 nM and “C (C denotes ≤5-fold)”. Taken in the same sequence, the figures for `Cc1cc([C@@H](C)Nc2ccccc2C(=O)O)c2nc(-c3ccnc(C4CC4)c3)cc(=O)n2c1` [Compound 1155] were above 2000 nM and “C (C denotes ≤5-fold)”. On to `Cc1cc([C@H](C)Nc2ccccc2C(=O)O)c2nc(-c3ccnc(C4CC4)c3)cc(=O)n2c1` [Compound 1156], for which the 50% inhibitory concentration (IC50) is below 100 nM and the “T47D pAKT S473 HTRF IC50 (H1047R): T47D (H1047R) selectivity over SKBR3 (WT)” value was “A (A denotes >20-fold)”. The like results for `Cc1cc([C@@H](C)Nc2ccccc2C(=O)O)c2nc(-c3cnc(C)c(Cl)c3)cc(=O)n2c1` [Compound 1157] were, in that order, 100 to 500 nM and “A (A denotes >20-fold)”.

Take `Cc1cc([C@H](C)Nc2ccccc2C(=O)O)c2nc(-c3cnc(C)c(Cl)c3)cc(=O)n2c1` [Compound 1158]: the IC50 was above 2000 nM and the “T47D pAKT S473 HTRF IC50 (H1047R): T47D (H1047R) selectivity over SKBR3 (WT)” value is listed as “C (C denotes ≤5-fold)”. Turning to `CCC(Nc1ccccc1S(N)(=O)=O)c1cc(C)cn2c(=O)cc(N3CCOCC3)nc12` (stereo not drawn) [Compound 1159], the IC50 is above 2000 nM and the “T47D pAKT S473 HTRF IC50 (H1047R): T47D (H1047R) selectivity over SKBR3 (WT)” value was “C (C denotes ≤5-fold)”. Taken in the same sequence, the figures for `Cc1cc(C(C)Nc2ccccc2C(=O)O)c2nc(N3Cc4ccccc4C3)c(C#N)c(=O)n2c1` (stereo not drawn) [Compound 1160] were below 100 nM and “A (A denotes >20-fold)”. The like results for `Cc1cc([C@@H](C)Nc2ccccc2)c2nc(N(C)Cc3ccccc3)c(C)c(=O)n2c1` [Compound 1163] were, in that order, 100 to 500 nM and “A (A denotes >20-fold)”. The like results for `Cc1cc(C(C)Nc2ccccc2C(=O)O)c2nc(-c3cc(F)cc(C4CC4)c3)c(C)c(=O)n2c1` (stereo not drawn) [Compound 1169] were, in that order, below 100 nM and “A (A denotes >20-fold)”.

Regarding `Cc1cc(C(C)Nc2ccccc2C(=O)O)c2nc(-c3ccc(C(C)C)nc3)c(C)c(=O)n2c1` (stereo not drawn) [Compound 1178], the IC50 is below 100 nM and the “T47D pAKT S473 HTRF IC50 (H1047R): T47D (H1047R) selectivity over SKBR3 (WT)” value is “A (A denotes >20-fold)”. The like results for `Cc1cc(C(C)Nc2cc(F)ccc2C(=O)O)c2nc(-c3ccnc(C4CC4)c3)c(C)c(=O)n2c1` (stereo not drawn) [Compound 1182] were, in that order, below 100 nM and “A (A denotes >20-fold)”.

`CC#Cc1nc2c(C(C)Nc3ccccc3C(=O)O)cc(C)cn2c(=O)c1C` (stereo not drawn) [Compound 1185]: the IC50 was in the range of 500 to 2000 nM and the “T47D pAKT S473 HTRF IC50 (H1047R): T47D (H1047R) selectivity over SKBR3 (WT)” value is given as “B (B denotes 20-fold≥value>5-fold)”. Taken in the same sequence, the figures for `Cc1cc(C(C)Nc2ccccc2C(=O)O)c2nc(C#CC3CC3)c(C)c(=O)n2c1` (stereo not drawn) [Compound 1186] were 100 to 500 nM and “A (A denotes >20-fold)”. The like results for `C#Cc1ccc(-c2nc3c(C(C)Nc4ccccc4C(=O)O)cc(C)cn3c(=O)c2C)cn1` (stereo not drawn) [Compound 1191] were, in that order, below 100 nM and “A (A denotes >20-fold)”. Taken in the same sequence, the figures for `Cc1cc(C(C)Nc2cc(F)ccc2C(=O)O)c2nc(-c3cccc(F)c3)c(C)c(=O)n2c1` (stereo not drawn) [Compound 1197] were below 100 nM and “A (A denotes >20-fold)”. `Cc1cc([C@@H](C)Nc2ccccc2C(=O)O)c2nc(-c3ccnc(C)n3)c(C)c(=O)n2c1` [Compound 1198]: the IC50 was above 2000 nM and the “T47D pAKT S473 HTRF IC50 (H1047R): T47D (H1047R) selectivity over SKBR3 (WT)” value is recorded as “C (C denotes ≤5-fold)”. With `Cc1cc(C(C)Nc2ccccc2C(=O)O)c2nc(-c3ccnc(C)c3)c(C)c(=O)n2c1` (stereo not drawn) [Compound 1202], the “T47D pAKT S473 HTRF IC50 (H1047R): T47D (H1047R) selectivity over SKBR3 (WT)” value is “A (A denotes >20-fold)”.

As to `Cc1cc(C(C)Nc2ccccc2C(=O)O)c2nc(-c3cc(C)ncn3)c(C)c(=O)n2c1` (stereo not drawn) [Compound 1203], the IC50 was in the range of 100 to 500 nM and the “T47D pAKT S473 HTRF IC50 (H1047R): T47D (H1047R) selectivity over SKBR3 (WT)” value was “A (A denotes >20-fold)”. Taken in the same sequence, the figures for `CC#Cc1nc2c([C@@H](C)Nc3ccccc3C(=O)O)cc(C)cn2c(=O)c1C` [Compound 1205] were above 2000 nM and “C (C denotes ≤5-fold)”. With `CC#Cc1nc2c([C@H](C)Nc3ccccc3C(=O)O)cc(C)cn2c(=O)c1C` [Compound 1206], the IC50 lay within 500 to 2000 nM and the “T47D pAKT S473 HTRF IC50 (H1047R): T47D (H1047R) selectivity over SKBR3 (WT)” value is reported as “B (B denotes 20-fold≥value>5-fold)”. For `Cc1cc([C@H](C)Nc2ccccc2C(=O)O)c2nc(N3Cc4ccccc4C3)c(C#N)c(=O)n2c1` [Compound 1208], the 50% inhibitory concentration (IC50) lay in the range of 100 to 500 nM and the “T47D pAKT S473 HTRF IC50 (H1047R): T47D (H1047R) selectivity over SKBR3 (WT)” value is reported as “A (A denotes >20-fold)”.

`Cc1cc(C(C)Nc2cccnc2C(=O)O)c2nc(-c3cccc(F)c3)c(C)c(=O)n2c1` (stereo not drawn) [Compound 1223]: the half-maximal inhibitory concentration (IC50) was below 100 nM and the “T47D pAKT S473 HTRF IC50 (H1047R): T47D (H1047R) selectivity over SKBR3 (WT)” value was “A (A denotes >20-fold)”.
